{"source": "patent US8765464B2", "about": "“Kit for culturing cells comprising tube with flat wall, extracellular matrix and culture medium” (Kurashiki Boseki Kabushiki Kaisha, priority 2001, dated 2014)", "key": {"[1]": {"system": "C-1, A-549, MKN-28, HFL-1, WI-38 cell lines and Lung-k primary lung cancer cells", "test": "Influence of vancomycin amount upon anticancer agent sensitivity test results", "format": "cell-based, human", "details": "vancomycin not more than 3.0 mg/ml added in the preliminary culture step; Taxol, Taxotere, Gemcitabine, Navelbine", "description": "(§1) As to the test material and the number of cells as seeded (test material/number of cells as seeded), the following were used: • C-1 (human colon cancer cell line)/1×10^5 cells/well • A-549 (human lung cancer cell line)/1×10^5 cells/well • MKN-28 human stomach cancer cell line)/1×10^5 cells/well • HFL-1 and WI-38 (human fibroblast cells line)/1×10^5 cells/well • Lung-k human primary lung cancer cells)/5×10^5 cells/well (in the preliminary culture step) or 2×10^5 cells/well (in the proliferative culture step)\n(§2) The culture medium in the preliminary culture step was a culture medium as used in Example 1, and only the concentrations of the vancomycin produced by Wako Pure Chemicals Co., Ltd.) therein were settled in the following conditions: 0.1 mg/ml, 0.5 mg/ml, 1.0 mg/ml, 1.5 mg/ml, 2.0 mg/ml, 2.5 mg/ml, 3.0 mg/ml, 4.0 mg/ml, and 5.0 mg/ml, and tests were carried out in each condition. […]\n(§3) (5) The resultant test plate is quantitatively analyzed with an image analyzer, and then the unfavorable influence upon the cell proliferativity and the anticancer agent sensitivity test results (antitumor effect T/C (%): relative proliferation ratio T/C (%) between a group non-treated with anticancer agents (C) and a group treated with anticancer agents (T), in the case where the ratio is not more than 50%, it is defined as having a sensitivity.) are observed. […]"}, "[2]": {"system": "C-1, A-549, MKN-28, HFL-1, WI-38 cell lines and Lung-k primary lung cancer cells", "test": "Confirmation test of cell toxicity according to vancomycin amount: cell proliferativity in proliferative culture step", "format": "cell-based, human", "details": "vancomycin not more than 3.0 mg/ml added in the preliminary culture step; after 7 days culture", "description": "as §1, §2, §3"}, "[3]": {"system": "C-1, A-549, MKN-28, HFL-1 and WI-38 cell lines", "test": "Confirmation test of cell toxicity according to vancomycin amount: cell proliferativity in preliminary culture step, cell lines", "format": "cell-based, human", "details": "various cells, after 48 hours from the beginning of the culture", "protocol": "(§4) Specifically, it is confirmed whether the vancomycin in the culture medium of the preliminary culture step has a unfavorable influence upon the cell proliferativity in the preliminary culture step, the cell proliferativity in the proliferative culture step, and the anticancer agent sensitivity test results or not, and then the following test was carried out. Herein, the unfavorable influence means such an influence as causes to decrease the cell proliferativity and success rate of the anticancer agent sensitivity test.\n(§5) As to the test material and the number of cells as seeded (test material/number of cells as seeded), the following were used: • C-1 (human colon cancer cell line)/1×10^5 cells/well • A-549 (human lung cancer cell line)/1×10^5 cells/well • MKN-28 human stomach cancer cell line)/1×10^5 cells/well • HFL-1 and WI-38 (human fibroblast cells line)/1×10^5 cells/well • Lung-k human primary lung cancer cells)/5×10^5 cells/well (in the preliminary culture step) or 2×10^5 cells/well (in the proliferative culture step) […]\n(§6) […] After the cells were counted with a blood-cell counter board, the cell number per 1 ml of the culture medium was calculated, and the cell proliferativity in the preliminary culture step was observed."}, "[4]": {"system": "Lung-k human primary lung cancer cells", "test": "Confirmation test of cell toxicity according to vancomycin amount: preliminary culture step, primary cells", "format": "cell-based", "details": "human primary culturing cells, after 48 hours from the beginning of the culture", "protocol": "as §4, §5, §6"}}, "note": "Structures can show the parent of a compound that is named as a salt.", "data": [{"smiles": "CN[C@H](CC(C)C)C(=O)N[C@H]1C(=O)N[C@@H](CC(N)=O)C(=O)N[C@H]2C(=O)N[C@H]3C(=O)N[C@H](C(=O)N[C@H](C(=O)O)c4cc(O)cc(O)c4-c4cc3ccc4O)[C@H](O)c3ccc(c(Cl)c3)Oc3cc2cc(c3O[C@@H]2O[C@H](CO)[C@@H](O)[C@H](O)[C@H]2O[C@H]2C[C@](C)(N)[C@H](O)[C@H](C)O2)Oc2ccc(cc2Cl)[C@H]1O", "note": "[vancomycin, vancomycin hydrochloride]", "values": [{"measurement": "unfavorable influence upon the anticancer agent sensitivity test results (antitumor effect T/C (%))", "setting": "[1]", "result": "no unfavorable influence"}, {"measurement": "unfavorable influence upon the cell proliferativity in the proliferative culture step", "setting": "[2]", "result": "not found"}, {"measurement": "vancomycin concentration at which the cell proliferation was as good as without vancomycin", "setting": "[3]", "result": "not more than 2.0 mg/ml"}, {"measurement": "vancomycin concentration at which the cell number was maintained and cell toxicity (cells-killing action) was not observed", "setting": "[4]", "result": "not more than 3.0 mg/ml"}]}]}
